According to patent US20070270392A1, “Use of a Cyclopentenone Prostaglandin for Delaying the Onset and/or Preventing the Continuation of Labour” (Imperial College Innovations Limited, priority 2003, published 2007):

Tests used:
[1] = test system: NF-κB; test: EMSA of NF-κB DNA binding in nuclear extracts of treated myometrial cells; format: cell-based, human; details: for IL-1β-induced NF-κB DNA binding: myometrial cells, treated 2 h, IL-1β stimulation 15 min
Experimental: (§1) Electro-mobility shift assay (EMSA) analysis of NF-κB DNA binding in nuclear protein extracts from (A) myometrial cells, (B) L+amnion cells, and (C) L− amnion cells treated with 15dPGJ2 or vehicle for 2 h+/−IL-1b stimulation (15 min). Consensus kB probe used to assess NF-κB DNA binding, and consensus Oct-1 probe used as control.
Consensus κB probe used to assess NF-κB DNA binding, consensus Oct-1 probe used as control. For supershift analysis, extracts were preincubated with antibodies against p50 or p65.
EMSA analysis of nuclear protein extracts from myometrial cells treated with (A) WY-14643 or vehicle, and (B) high doses of troglitazone, WY-14643 or vehicle for 2 h followed by IL-1b stimulation (15 min). Consensus κB probe used to assess NFκB DNA binding, consensus Oct-1 and Sp-1 probes used as controls.
(§2) EMSA analysis of nuclear protein extracts from (A) myometrial cells, and (B) amnion cells treated with PGA1 or vehicle for 2 h followed by IL-1b stimulation (15 min). Consensus κB probe used to assess NFκB DNA binding, consensus Oct-1 probe used as control. For supershift analysis, extracts were preincubated with antibodies against p50 or p65.
Analysis of nuclear protein extracts from myometrial cells treated with PGE2 or vehicle for 2 h+/−TNFα or IL-1b stimulation (15 min). (A) EMSA using consensus κB probe. (B) Western immunoblot probing for nuclear p65.
(§3) EMSA analysis of nuclear protein extracts from (A) L− amnion cells and (B) myometrial cells treated with vehicle, PGE2 or IL-1β. Consensus κB probe used.
Myometrial tissue was collected at term from the upper margin of uterine incision at the time of lower segment caesarean section either prior to the onset of labour (L−) or […] (L+). L+ samples were collected by Dr Mark Johnson and Dr S Soorrana at Chelsea & Westminster Hospital. Myometrial tissue was dissected, rinsed in PBS, and digested in serum-free DMEM containing 15 mg/ml collagenase 1A (Sigma), 15 mg/ml collagenase X, and 50 mg/ml bovine serum albumin for 45 min at 37° C. The cell suspension was filtered through a cell strainer, centrifuged at 400 g for 5 min, and the pellet re-suspended and plated out in DMEM, 10% FCS (Helena BioScience), 1% L-glutamine, 1% penicillin-streptomycin. Cells were used between passage numbers 1-4.
(§4) Nuclear and cytosolic protein extracts were obtained from cultured amnion cells as described by Schreiber et al (1989). For nuclear/cytosolic fractionation, confluent cell monolayers were scraped and lysed using a buffer containing 10 mM HEPES, 10 mM KCl, 0.1 mM EDTA, 0.1 mM EGTA, 2 mM DTT, 1% (v/v) NP-40 and complete protease inhibitor tablets (CPIs, Roche), diluted to manufacturer's instructions. Cell lysates were incubated on ice for 10 min and NP-40 added to a final concentration of 1% (v/v). Lysates were vortexed for 10 secs and centrifuged for 30 secs at 4° C., 12000 g. The supernatants were retained as the cytosolic protein extracts. The pellets were resuspended in buffer containing 10 mM HEPES, 10 mM KCl, 0.1 mM EDTA, 0.1 mM EGTA, 2 mM DTT, 400 mM NaCl, 1% NP-40 (v/v) and CPIs. Samples were shaken vigorously for 15 min in an ice bath. The nuclear protein extracts were obtained in the supernatant following a 5 min centrifugation at 4° C., 12000 g.
(§5) Sense and antisense strands (175 nmole/ml each) were incubated in annealing buffer (10 mM Tris-HCl pH7.5, 100 mM NaCl, 1 mM EDTA) for 10 min at 65° C., and allowed to cool at room temperature for 2 h. 3.5 pmole double-stranded oligonucleotides were end-labelled with 0.37 MBq ^32P(γATP) by incubating for 30 min at 37° C. with T4 polynucleotide kinase. Labelled oligonucleotides were recovered by centrifugation at […] for 2 min through MicroSpin G-25 or G-50 sephadex columns (Amersham Biosciences). […]

[2] = test system: NF-κB; test: EMSA of NF-κB DNA binding in nuclear extracts of treated amnion cells; format: cell-based, human; details: L− and L+ amnion cells, treated 2 h, IL-1β stimulation 15 min
Experimental: as §1
EMSA analysis of nuclear protein extracts from amnion cells treated with 15dPGJ2+/−GW9662 or vehicle for 2 h followed by IL-1β stimulation (15 min). Consensus kB probe used to assess NFκB DNA binding, consensus Oct-1 probe used as control.
as §2, §3
Placentae were obtained from patients at term either at elective Caesarean section prior to labour (L−) or following spontaneous labour onset and vaginal delivery (L+). Amnion cells were prepared as described in Bennett et al., (1989). Briefly, the amnion was separated from the placenta, washed 3× in PBS, cut into strips, and incubated in 0.51 mM EDTA in PBS for 15 min. The strips were washed in PBS 2× and digested with 2.5 mg/ml dispase in serum-free DMEM for 35 min at 37° C. The amnion was then shaken vigorously in DMEM, 10% FCS to dissociate the cells, the remaining strips discarded, and the cell suspension pelleted at 175 g for 10 min and cultured in DMEM, 10% FCS (Sigma), 1% L-glutamine, 1% penicillin-streptomycin.
as §4, §5

| SMILES | Protein binding to a consensus Oct-1 or Sp-1 probe (control) ([1]; control for NF-κB-specific effect) | IL-1β-induced NF-κB DNA binding [1] | IL-1β-induced NF-κB DNA binding [2] |
| --- | --- | --- | --- |
| CCCCCC=CC=C1C(=O)C=C[C@@H]1CC=CCCCC(=O)O [15d-PGJ2, 15-deoxy-Δ^12,14prostaglandin J2] | unaffected | inhibited | inhibited |
| CCCCC[C@H](O)/C=C/[C@H]1C=CC(=O)[C@@H]1CCCCCCC(=O)O [PGA1, prostaglandin A1] |  | able to inhibit | able to inhibit |
